Source: patent US11045562B2, “Radiolabelled mGluR2/3 PET ligands” (Janssen Pharmaceutica NV, priority 2015, dated 2021)
Values belong to the compound of their own block, whether it stands above or below them.

Assays:
mGluR2/3 [1] = test: microPET imaging in rhesus monkey, baseline and compound A pretreatment; type: in vivo, rhesus monkey (Macaca mulatta); details: for BPnd: baseline, SRTM, pons reference
From the text: Dynamic 120-min μPET scans with [^18F]-1 were acquired with a Focus 220 μPET scanner on a rhesus monkey (8 y-old female Macaca mulatta, 5.8 kg), that was sedated with ketamine (Ketalar®) and xylazine (Rompun®) via intramuscular (i.m.) injection. During scanning the monkey received repeatedly an additional dose of ketamine/xylazine via i.v. injection. O2 saturation in blood, breathing frequency and heartbeat frequency were monitored during the entire experiment. The head of the animal was placed central in the field of view of the μPET scanner. Scans were acquired in list mode and Fourier rebinned in 27 time frames (4×15 s, 4×60 s, 5×180 s, 8×300 s, 6×600 s). Data were reconstructed using a 3D maximum a posteriori (3D-MAP) iterative reconstruction. TACs of the whole brain were generated using VOIs with PMOD software. Radioactivity concentration in the brain is expressed as SUV as a function of time after tracer injection. In addition, non-displaceable binding potential (BPnd) was determined, using kinetic modeling based on the simplified reference tissue model (SRTM) with the pons as reference region (0-60 min). Scans were started immediately after i.v. injection of 185 MBq of [^18F]-1 via the vena saphena of the right leg. For the pre-treatment study, the cold authentic reference compound A was dissolved in a vehicle containing 20% (2-hydroxypropyl)-β-cyclodextrin and 2 equivalents HCl, filtered through a 0.22-μm membrane filter (Millex-GV, Millipore) prior to injection. Pre-treatment was done by i.v. injection of 2.5 mg/kg of cold authentic reference compound A, 30 min prior to injection of 185 MBq of [^18F]-1. μPET images were compared to a baseline scan, acquired in the non-treated monkey. Blood samples were collected during both baseline and pre-treatment scans at 10, 30 and 60 min p.i. via a catheter in the vena saphena of the left leg and plasma was analysed for radio metabolites according to the same procedure as for rats.

mGlu2-3 rat cortex = test: [3H]-compound A displacement binding, rat cortical membranes
Protocol: (§1) For [^3H]-compound A (a NAM compound, selective for mGlu2/3 (˜20 fold selective for 2 over 3) vs other mGluRs) binding, membranes from human mGlu2 and mGlu3 HEK293 cells, and also rat cortical membranes, were used. After thawing, membranes were homogenized using an Ultra Turrax homogenizer and suspended in ice-cold binding buffer containing 50 mM Tris-HCl (pH 7.4), 10 mM MgCl2, 2 mM CaCl2. Displacement studies were done using 6 nM of radioligand, except for human mGlu3 membranes where 25 nM was used. Assay mixtures were incubated for 60 min at RT in a volume of 0.5 ml containing […] or 75 μg membrane protein of human mGlu2, human mGlu3 or rat cortex, respectively. Non-specific binding was estimated in the presence of […] compound B (a NAM with IC50˜10 nM against hmGlu2 and IC50˜200 nM against hmGlu3). Filtration was performed using Whatman GF/C filter sheets pre-soaked in 0.1% PEI and a Brandell harvester 96.
(§2) Filters from filters sheets were punched into vials. After the addition of scintillation liquid, radioactivity on the filters was counted in a Liquid Scintillation Analyzer from Perkin Elmer.
(§3) Radioligand competition binding data were calculated as percentage of total binding measured in the absence of test compound. […] Sigmoid inhibition curves were analyzed using non-linear regression analysis.

human mGlu2 = biological target: T1, human mGlu2 (Homo sapiens, UniProt Q14416); test: [3H]-compound A displacement binding, human mGlu2 HEK293 membranes
T1 construct: expressed in transfected cells; host or cells: HEK293
T1 sequence (Q14416 19-872): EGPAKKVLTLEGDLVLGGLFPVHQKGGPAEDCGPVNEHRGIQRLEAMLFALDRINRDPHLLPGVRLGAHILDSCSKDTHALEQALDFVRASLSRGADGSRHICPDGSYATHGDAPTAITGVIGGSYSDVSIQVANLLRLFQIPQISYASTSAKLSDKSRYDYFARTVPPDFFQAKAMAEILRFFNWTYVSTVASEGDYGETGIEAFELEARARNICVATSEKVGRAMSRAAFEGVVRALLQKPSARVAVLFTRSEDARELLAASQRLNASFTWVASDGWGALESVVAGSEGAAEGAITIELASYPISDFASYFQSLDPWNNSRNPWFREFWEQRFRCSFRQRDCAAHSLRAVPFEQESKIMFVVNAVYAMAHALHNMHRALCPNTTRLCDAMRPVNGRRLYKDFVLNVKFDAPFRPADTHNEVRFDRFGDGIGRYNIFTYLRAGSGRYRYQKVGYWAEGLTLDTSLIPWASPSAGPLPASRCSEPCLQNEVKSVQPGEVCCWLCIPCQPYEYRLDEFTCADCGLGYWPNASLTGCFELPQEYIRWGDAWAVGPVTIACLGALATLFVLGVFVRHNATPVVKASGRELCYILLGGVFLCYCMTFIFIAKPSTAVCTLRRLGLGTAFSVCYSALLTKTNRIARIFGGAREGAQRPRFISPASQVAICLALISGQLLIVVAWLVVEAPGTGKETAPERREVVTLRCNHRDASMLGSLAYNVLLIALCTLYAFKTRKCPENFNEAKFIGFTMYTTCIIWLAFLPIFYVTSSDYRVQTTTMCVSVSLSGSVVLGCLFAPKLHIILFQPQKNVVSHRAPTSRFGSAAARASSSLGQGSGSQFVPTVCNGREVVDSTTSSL
Protocol: as §1, §2, §3

[2] = Ex-vivo biodistribution in Sprague-Dawley rats; details: for Uptake, Mean 2 min: 2 min after i.v. injection; for Uptake, Mean 2 min / Uptake, Mean 10 min / Uptake, Mean 30 min / Uptake, Mean 60 min: n=3; for Uptake, Mean 10 min: 10 min after i.v. injection; for Uptake, Mean 30 min: 30 min after i.v. injection; for Uptake, Mean 60 min: 60 min after i.v. injection
Protocol: (§4) Sprague-Dawley rats obtained from Harlan (the Netherlands), were housed in groups of four to six per cage until treatment. They were kept at a constant temperature of 21° C. and at a 12-h light/dark cycle, in which lights were switched on at 8:00 a.m. Animals had unrestricted access to food (Teklad Global 16% Protein Rodent Diet, Harlan, Madison, Wis., USA) and water. All animal experiments were performed in compliance with Belgium laws on animal experimentation and after approval by the local animal ethics committee.
The biodistribution of [^18F]-1 was determined at 2, 10, 30 and 60 min, after injection in Sprague Dawley rats (n=3 per time point. Rats were injected intravenously with 0.7-1.1 MBq via a tail vein and euthanized at the time points indicated above, under isoflurane anesthesia. All tissues were dissected, weighed and counted for radioactivity in a gamma counter.

human mGlu3 = biological target: T2, human mGlu3 (Homo sapiens, UniProt Q14832); test: [3H]-compound A displacement binding, human mGlu3 HEK293 membranes
T2 construct: expressed in transfected cells; host or cells: HEK293
T2 sequence (Q14832 23-879): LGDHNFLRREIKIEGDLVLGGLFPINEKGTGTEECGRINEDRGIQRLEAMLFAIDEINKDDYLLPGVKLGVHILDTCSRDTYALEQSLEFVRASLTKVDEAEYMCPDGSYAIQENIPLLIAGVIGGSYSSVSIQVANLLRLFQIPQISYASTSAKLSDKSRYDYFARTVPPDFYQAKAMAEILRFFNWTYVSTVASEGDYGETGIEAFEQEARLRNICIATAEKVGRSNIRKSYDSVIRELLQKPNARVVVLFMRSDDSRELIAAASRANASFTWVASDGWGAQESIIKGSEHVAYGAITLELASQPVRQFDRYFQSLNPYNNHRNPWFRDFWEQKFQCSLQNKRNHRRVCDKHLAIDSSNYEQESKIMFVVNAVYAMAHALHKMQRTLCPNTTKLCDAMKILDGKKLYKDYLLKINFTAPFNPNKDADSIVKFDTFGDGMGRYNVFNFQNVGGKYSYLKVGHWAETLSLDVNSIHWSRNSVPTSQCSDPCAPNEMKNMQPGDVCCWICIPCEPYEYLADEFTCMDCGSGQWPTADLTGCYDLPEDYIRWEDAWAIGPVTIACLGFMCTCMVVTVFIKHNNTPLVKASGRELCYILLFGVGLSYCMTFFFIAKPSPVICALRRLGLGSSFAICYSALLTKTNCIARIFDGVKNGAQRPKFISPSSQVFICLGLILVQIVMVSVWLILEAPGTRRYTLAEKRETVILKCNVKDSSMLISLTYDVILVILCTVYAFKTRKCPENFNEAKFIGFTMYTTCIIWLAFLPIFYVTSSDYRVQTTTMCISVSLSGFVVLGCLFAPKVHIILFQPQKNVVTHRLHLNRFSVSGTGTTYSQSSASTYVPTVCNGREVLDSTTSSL
Protocol: as §1, §2, §3

mGluR2/3 [3] = test: microPET scanning in SD rats, baseline and compound A pretreatment; type: in vivo
Protocol: Data were acquired in a 128×128×95 matrix with a pixel width of 0.475 mm and a slice thickness of 0.796 mm. During PET imaging, rats were kept under gas anesthesia (2.5% isoflurane in oxygen at a flow rate of 1 l/min), and their body temperature was maintained between 36.5 and 37° C. using a heating pad. PET data were analyzed using Pmod software version 3.2 (Pmod, Zurich Switzerland).
as §4
The peak uptake in frontal cortex during the baseline scan was observed around 15 min after tracer injection.

melting point: 150.62 °C
SMILES: C[C@H]1CN(c2ccc(C(F)(F)F)c(CF)c2)C(=O)c2c(NC(=O)c3cccnc3N)cnn21 [[^19F]-1]

bone uptake (mGluR2/3 [1]; microPET scans, rhesus monkey): No bone uptake | brain uptake SUV (mGluR2/3 [1]; whole brain, baseline scan): ~3 SUV | time to peak uptake (mGluR2/3 [1]; whole brain, baseline scan): 3.5 min | Eff Curve (mGlu2-3 rat cortex): 103 | pIC50 (mGlu2-3 rat cortex; 6 nM [3H]-compound A): 8.7 | Eff Curve (human mGlu2): 85 | IC50 (human mGlu2; 6 nM [3H]-compound A): 2.88 nM | time of highest uptake ([2]; all brain areas except for the pons): around 10 min | Uptake, Mean 2 min ([2]; blood): 0.72 SUV | Uptake, Mean 10 min ([2]; blood): 0.50 SUV | Uptake, Mean 30 min ([2]; blood): 0.39 SUV | Uptake, Mean 60 min ([2]; blood): 0.28 SUV | Uptake, Mean 2 min ([2]; bone): 0.61 SUV | Uptake, Mean 10 min ([2]; bone): 0.52 SUV | Uptake, Mean 30 min ([2]; bone): 0.73 SUV | Uptake, Mean 60 min ([2]; bone): 0.67 SUV | Uptake, Mean 2 min ([2]; cerebellum): 3.42 SUV | Uptake, Mean 10 min ([2]; cerebellum): 3.33 SUV | Uptake, Mean 30 min ([2]; cerebellum): 1.90 SUV | Uptake, Mean 60 min ([2]; cerebellum): 0.72 SUV | Uptake, Mean 2 min ([2]; cerebrum + cerebellum): 3.19 SUV | Uptake, Mean 10 min ([2]; cerebrum + cerebellum): 3.45 SUV | Uptake, Mean 30 min ([2]; cerebrum + cerebellum): 2.28 SUV | Uptake, Mean 60 min ([2]; cerebrum + cerebellum): 0.85 SUV | Uptake, Mean 2 min ([2]; cortex): 5.42 SUV | Uptake, Mean 10 min ([2]; cortex): 5.98 SUV | Uptake, Mean 30 min ([2]; cortex): 3.87 SUV | Uptake, Mean 60 min ([2]; cortex): 1.36 SUV | brain uptake ([2]; ex-vivo biodistribution, SD rats): high | bone uptake over time ([2]; ex-vivo biodistribution, hinting for some defluorination): went slightly up over time | uptake in liver, kidneys, pancreas and heart ([2]; followed by a fast washout): high initial uptake | Uptake, Mean 2 min ([2]; heart): 4.73 SUV | Uptake, Mean 10 min ([2]; heart): 2.16 SUV | Uptake, Mean 30 min ([2]; heart): 1.49 SUV | Uptake, Mean 60 min ([2]; heart): 1.14 SUV | Uptake, Mean 2 min ([2]; hippocampus): 2.49 SUV | Uptake, Mean 10 min ([2]; hippocampus): 2.83 SUV | Uptake, Mean 30 min ([2]; hippocampus): 1.94 SUV | Uptake, Mean 60 min ([2]; hippocampus): 0.80 SUV | Uptake, Mean 2 min ([2]; kidneys): 6.59 SUV | Uptake, Mean 10 min ([2]; kidneys): 2.76 SUV | Uptake, Mean 30 min ([2]; kidneys): 2.24 SUV | Uptake, Mean 60 min ([2]; kidneys): 1.87 SUV | Uptake, Mean 2 min ([2]; liver): 8.81 SUV | Uptake, Mean 10 min ([2]; liver): 5.70 SUV | Uptake, Mean 30 min ([2]; liver): 3.90 SUV | Uptake, Mean 60 min ([2]; liver): 2.42 SUV | Uptake, Mean 2 min ([2]; lungs): 4.70 SUV | Uptake, Mean 10 min ([2]; lungs): 2.27 SUV | Uptake, Mean 30 min ([2]; lungs): 2.01 SUV | Uptake, Mean 60 min ([2]; lungs): 1.77 SUV | Uptake, Mean 2 min ([2]; muscle): 0.57 SUV | Uptake, Mean 10 min ([2]; muscle): 1.07 SUV | Uptake, Mean 30 min ([2]; muscle): 0.87 SUV | Uptake, Mean 60 min ([2]; muscle): 0.65 SUV | Uptake, Mean 2 min ([2]; pancreas): 6.47 SUV | Uptake, Mean 10 min ([2]; pancreas): 3.07 SUV | Uptake, Mean 30 min ([2]; pancreas): 2.84 SUV | Uptake, Mean 60 min ([2]; pancreas): 2.75 SUV | time of peak uptake ([2]; pons): 2 min | Uptake, Mean 2 min ([2]; pons): 2.65 SUV | Uptake, Mean 10 min ([2]; pons): 2.13 SUV | Uptake, Mean 30 min ([2]; pons): 1.29 SUV | Uptake, Mean 60 min ([2]; pons): 0.56 SUV | Uptake, Mean 2 min ([2]; rest of cerebrum): 3.24 SUV | Uptake, Mean 10 min ([2]; rest of cerebrum): 3.74 SUV | Uptake, Mean 30 min ([2]; rest of cerebrum): 2.45 SUV | Uptake, Mean 60 min ([2]; rest of cerebrum): 0.91 SUV | Uptake, Mean 2 min ([2]; spleen): 3.71 SUV | Uptake, Mean 10 min ([2]; spleen): 1.64 SUV | Uptake, Mean 30 min ([2]; spleen): 1.13 SUV | Uptake, Mean 60 min ([2]; spleen): 0.87 SUV | Uptake, Mean 2 min ([2]; striatum): 3.21 SUV | Uptake, Mean 10 min ([2]; striatum): 3.56 SUV | Uptake, Mean 30 min ([2]; striatum): 3.03 SUV | Uptake, Mean 60 min ([2]; striatum): 1.14 SUV | Uptake, Mean 2 min ([2]; whole cerebrum): 3.11 SUV | Uptake, Mean 10 min ([2]; whole cerebrum): 3.43 SUV | Uptake, Mean 30 min ([2]; whole cerebrum): 2.31 SUV | Uptake, Mean 60 min ([2]; whole cerebrum): 0.87 SUV | blood uptake ([2]; with a slow washout): low | Eff Curve (human mGlu3): 96 | IC50 (human mGlu3; 25 nM [3H]-compound A): 5.01 nM | time of peak uptake after tracer injection (mGluR2/3 [3]; frontal cortex, baseline scan): around 15 min
SMILES: C[C@H]1CN(c2ccc(C(F)(F)F)c(C[18F])c2)C(=O)c2c(NC(=O)c3cccnc3N)cnn21 [compound 1]
BPnd (mGluR2/3 [1]; frontal and prefrontal cortices): high | BPnd (mGluR2/3 [1]; thalamus): low | mGluR2/3 specificity of brain uptake (mGluR2/3 [3]; pons uptake in same range as other regions after compound A pretreatment): good mGluR2/3 specificity
